The source of these data is patent publication US20230416168A1 (EUROCHEM ANTWERPEN, priority 2020, published 2023).

By inhibition is commonly meant the relative decrease from the control value, in per cent.

The test system of the assay is Merelbeke soil. Nature of the assay: In soil nitrification inhibition assay, Merelbeke soil. The following applies: for inhibition of ammonium consumption in soil, in words: 50 μM, one week of treatment; for inhibition at 50 µM: soil, 168 h, 7 days, read-out: % Nitrification inhibition in soil (7 days of incubation, Merelbeke soil). Here is the method:
Top layer (0 to 10 cm) soil samples were collected from different fields in Belgium (Merelbeke and Moorslede). Vegetation on the field trial was removed and samples were taken from different plots. All soil samples were mixed and sieved (mesh size 2.8 mm) to filter large debris and homogenize soil. The soil was stored at 5° C. in plastic containers covered with Saran foil to prevent changes in microbial community composition and to maintain the original soil water content. Soil water content was determined by drying 20 g soil for 48 h in a 60° C. oven and measuring weight before and after drying. Based on the soil water content (±20%), compound solutions were prepared so that addition of 200 μl compound and 200 μl NH4Cl solution would result in a final compound concentration of 50 μM and a final NH4^+ concentration of 10 mM. Per treatment, 5 small pots were filled with 20 g soil. Next, the soil was treated first with the respective compound solution and then with the NH4Cl solution. Per tray, positive (50 μM DMP) and negative controls (DMSO) were included. Pots were incubated at 21° C. (6 a.m. to 10 p.m. light) for 7 days. Demineralized water was added to the soil every 2 to 3 days to a soil weight of 20 g. In the end, each sample of 20 g soil was dissolved in 100 ml 1M KCl and shaken for 1 hour, followed by filtration through Whatmann® paper. The filtrate was used to measure pH, NH4^+ and NO3− concentrations. The nitrification inhibitors were applied in a nitrification inhibition assay using agricultural soil. In practice, ammonium with or without the new nitrification inhibitors was added to soil from a field in Merelbeke (Belgium). The ammonium level was measured at the start of the experiment and at the end of the experiment, after one week of incubation. A nitrification inhibition percentage was calculated by comparing the reduction in ammonium level with the nitrification inhibitor to the reduction in ammonium without the nitrification inhibitor. Ammonium was added to soil with a high nitrification activity and treated with the nitrification inhibitors (final concentration of 50 μM). […] This validates that the new nitrification inhibitors are effectively inhibiting ammonia oxidation by soil communities.

`CN(Cc1c(Cl)nc2sccn12)CN1CCSC1=S` [Example 1, 3-[[(6-chloroimidazo[2,1-b][1,3]thiazol-5-yl)methyl-methylamino]methyl]-1,3-thiazolidine-2-thione]: the “inhibition of ammonium consumption in soil, in words” value is recorded as “strongly inhibited the ammonium consumption” and the inhibition at 50 µM worked out at 60%.

As for `CN(Cc1nc2ccccc2s1)CN1CCOC1=S` [Example 5, 3-[[1,3-benzothiazol-2-ylmethyl(methyl)amino]methyl]-1,3-oxazolidine-2-thione], the “inhibition of ammonium consumption in soil, in words” value is recorded as “significant inhibition” and the inhibition at 50 µM was 14%.
